Experimental data reported in ChEMBL document CHEMBL1909046, “DrugMatrix in vitro pharmacology data”.
*1 amine or outer side, *2 acyl side, *3 side chain or, on linkers, in order; H or OH if unused. Where a SMILES comes first, the peptide text is derived from it. Bridges are numbered along the chain shown (N, C = ends). Roman numbers before positions name the chains, in order. [ ]: non-standard residue; d: D form. Actinocin(1to9) = Cc1c2oc3c(C)ccc(C(=O)[*:2])c3nc-2c(C(=O)[*:1])c(N)c1=O; NMeV = CN[C@H](C(=O)O)C(C)C; Sar = CNCC(=O)O

Assays:
[1] = target: Beta-1 adrenergic receptor (Homo sapiens, UniProt P08588); assay: DRUGMATRIX: Adrenergic beta1 radioligand binding (ligand: [125I] Cyanopindolol); format: cell membranes, CHO-K1, Membrane; conditions: cho-k1; Not Active = under 50% inhibition at 10 µM
[2] = DRUGMATRIX: Serotonin (5-Hydroxytryptamine) 5-HT3 radioligand binding (ligand: [3H] GR-65630); format: cell membranes, Membrane; conditions: hek293; Not Active = under 50% inhibition at 10 µM
[3] = target: T1, Cysteinyl leukotriene receptor 1 (Homo sapiens, UniProt Q9Y271); format: cell membranes, CHO-K1, Membrane; conditions: cho-k1; further: in other assays of this panel Not Active means under 50% inhibition at 10 µM
T1 sequence (Q9Y271 whole entry): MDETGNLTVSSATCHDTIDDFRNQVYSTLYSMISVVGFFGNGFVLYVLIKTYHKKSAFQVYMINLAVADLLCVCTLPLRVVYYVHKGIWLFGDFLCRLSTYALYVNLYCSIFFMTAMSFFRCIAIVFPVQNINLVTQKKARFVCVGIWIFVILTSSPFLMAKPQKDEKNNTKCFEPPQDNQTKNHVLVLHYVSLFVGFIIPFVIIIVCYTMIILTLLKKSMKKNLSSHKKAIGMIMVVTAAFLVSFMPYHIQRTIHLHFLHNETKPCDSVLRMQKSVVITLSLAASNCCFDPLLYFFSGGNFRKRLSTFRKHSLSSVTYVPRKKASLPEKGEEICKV

[4] = target: Matrix metalloproteinase-9 (Homo sapiens, UniProt P14780); assay: biochemical; format: cell-based;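 further: inhibition of isolated MMP-9 enzyme activity toward a synthetic peptide substrate, from the DrugMatrix protease screening panel; in other assays of this panel Not Active means under 50% inhibition at 10 µM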
Acetylcholinesterase = Acetylcholinesterase (Homo sapiens, UniProt P22303); assay: DRUGMATRIX: Acetylcholinesterase enzyme inhibition (substrate: acetylthiocholine); format: cell-based, HEK293; conditions: Not Active = under 50% inhibition at 10 µM
Estrogen receptor beta = Estrogen receptor beta (Homo sapiens, UniProt Q92731); conditions: sf9; further: in other assays of this panel Not Active means under 50% inhibition at 10 µM
[5] = target: Voltage-gated inwardly rectifying potassium channel KCNH2 (Homo sapiens, UniProt Q12809); conditions: hek293; further: in other assays of this panel Not Active means under 50% inhibition at 10 µM
Voltage-gated inwardly rectifying potassium channel KCNH2, sequence (Q12809 whole entry): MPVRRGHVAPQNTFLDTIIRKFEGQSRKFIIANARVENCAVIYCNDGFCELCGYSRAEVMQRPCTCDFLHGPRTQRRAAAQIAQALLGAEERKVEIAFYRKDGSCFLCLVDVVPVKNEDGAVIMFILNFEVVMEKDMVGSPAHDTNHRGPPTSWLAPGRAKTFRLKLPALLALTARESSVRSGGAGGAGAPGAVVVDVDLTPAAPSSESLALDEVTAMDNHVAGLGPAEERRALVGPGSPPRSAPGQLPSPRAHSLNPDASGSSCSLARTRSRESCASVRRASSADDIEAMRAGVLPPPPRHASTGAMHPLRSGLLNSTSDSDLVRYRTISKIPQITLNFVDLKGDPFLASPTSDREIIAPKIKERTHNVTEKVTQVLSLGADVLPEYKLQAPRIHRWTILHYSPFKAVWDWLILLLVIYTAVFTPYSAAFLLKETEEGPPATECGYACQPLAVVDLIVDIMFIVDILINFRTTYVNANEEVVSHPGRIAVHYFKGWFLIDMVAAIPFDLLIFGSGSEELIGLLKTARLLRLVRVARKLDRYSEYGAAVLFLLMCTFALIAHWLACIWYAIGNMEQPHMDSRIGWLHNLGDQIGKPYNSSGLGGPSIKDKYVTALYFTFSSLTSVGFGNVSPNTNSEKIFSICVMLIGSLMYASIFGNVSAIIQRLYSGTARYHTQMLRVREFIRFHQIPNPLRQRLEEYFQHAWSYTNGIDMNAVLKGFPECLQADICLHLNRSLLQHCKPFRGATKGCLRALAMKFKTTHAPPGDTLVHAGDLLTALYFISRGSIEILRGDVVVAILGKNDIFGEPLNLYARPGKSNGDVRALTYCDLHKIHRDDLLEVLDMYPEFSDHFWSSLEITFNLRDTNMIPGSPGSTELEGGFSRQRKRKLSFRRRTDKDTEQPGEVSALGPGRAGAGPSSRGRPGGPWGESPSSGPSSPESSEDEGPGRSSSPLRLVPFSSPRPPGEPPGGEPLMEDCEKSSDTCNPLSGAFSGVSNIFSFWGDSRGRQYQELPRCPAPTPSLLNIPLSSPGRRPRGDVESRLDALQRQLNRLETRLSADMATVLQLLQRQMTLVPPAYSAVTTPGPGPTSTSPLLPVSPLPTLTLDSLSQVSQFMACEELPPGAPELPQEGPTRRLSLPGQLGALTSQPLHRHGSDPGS

Acetylcholinesterase, sequence (P22303 whole entry): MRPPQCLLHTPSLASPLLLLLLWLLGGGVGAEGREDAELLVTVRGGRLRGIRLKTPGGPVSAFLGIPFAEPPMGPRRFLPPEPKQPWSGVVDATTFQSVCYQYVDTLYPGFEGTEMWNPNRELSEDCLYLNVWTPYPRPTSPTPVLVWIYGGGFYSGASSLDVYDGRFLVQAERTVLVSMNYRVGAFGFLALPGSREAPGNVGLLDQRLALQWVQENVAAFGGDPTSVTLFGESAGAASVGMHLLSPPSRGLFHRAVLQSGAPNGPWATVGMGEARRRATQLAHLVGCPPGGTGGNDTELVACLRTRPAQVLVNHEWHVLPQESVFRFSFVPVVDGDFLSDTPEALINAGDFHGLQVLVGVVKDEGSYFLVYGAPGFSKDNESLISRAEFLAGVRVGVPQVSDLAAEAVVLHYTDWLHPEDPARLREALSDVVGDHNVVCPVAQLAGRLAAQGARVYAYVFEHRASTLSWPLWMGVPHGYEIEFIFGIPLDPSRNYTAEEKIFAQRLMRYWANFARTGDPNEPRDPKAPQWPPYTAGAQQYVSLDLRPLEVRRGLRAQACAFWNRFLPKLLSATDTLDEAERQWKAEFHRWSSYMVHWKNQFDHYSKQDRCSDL
Matrix metalloproteinase-9, sequence (P14780 whole entry): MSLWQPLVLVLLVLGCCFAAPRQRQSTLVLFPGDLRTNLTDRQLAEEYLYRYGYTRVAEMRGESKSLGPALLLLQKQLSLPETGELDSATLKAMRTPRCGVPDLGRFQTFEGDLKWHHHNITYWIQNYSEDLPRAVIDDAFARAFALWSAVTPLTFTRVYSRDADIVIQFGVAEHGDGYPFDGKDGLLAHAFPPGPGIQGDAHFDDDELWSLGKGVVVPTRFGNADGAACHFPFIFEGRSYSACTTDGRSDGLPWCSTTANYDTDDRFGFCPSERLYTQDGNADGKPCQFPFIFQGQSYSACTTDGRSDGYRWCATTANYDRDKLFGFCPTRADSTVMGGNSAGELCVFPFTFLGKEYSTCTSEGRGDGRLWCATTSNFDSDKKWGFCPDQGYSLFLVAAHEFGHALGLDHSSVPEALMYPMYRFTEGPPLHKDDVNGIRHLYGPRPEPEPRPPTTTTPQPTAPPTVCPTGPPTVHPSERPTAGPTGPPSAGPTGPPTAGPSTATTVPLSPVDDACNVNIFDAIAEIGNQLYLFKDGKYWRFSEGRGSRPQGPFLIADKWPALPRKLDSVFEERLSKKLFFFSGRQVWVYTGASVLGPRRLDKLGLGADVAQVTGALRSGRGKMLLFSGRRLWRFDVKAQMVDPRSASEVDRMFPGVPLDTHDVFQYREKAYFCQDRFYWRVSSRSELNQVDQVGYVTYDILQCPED
Beta-1 adrenergic receptor, sequence (P08588 whole entry): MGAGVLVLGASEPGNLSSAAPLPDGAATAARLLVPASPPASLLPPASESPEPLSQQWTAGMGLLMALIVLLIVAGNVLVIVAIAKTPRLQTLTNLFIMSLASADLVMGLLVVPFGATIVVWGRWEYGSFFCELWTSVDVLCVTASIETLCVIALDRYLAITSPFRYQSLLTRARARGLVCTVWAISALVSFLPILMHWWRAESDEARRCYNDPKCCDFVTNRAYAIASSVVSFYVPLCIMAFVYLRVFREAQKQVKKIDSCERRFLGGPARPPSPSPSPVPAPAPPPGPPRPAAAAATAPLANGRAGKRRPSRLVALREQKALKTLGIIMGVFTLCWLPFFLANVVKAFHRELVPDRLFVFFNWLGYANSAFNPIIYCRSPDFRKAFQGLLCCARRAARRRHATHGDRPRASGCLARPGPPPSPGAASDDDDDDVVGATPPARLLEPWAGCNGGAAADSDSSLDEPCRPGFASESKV
Estrogen receptor beta, sequence (Q92731 whole entry): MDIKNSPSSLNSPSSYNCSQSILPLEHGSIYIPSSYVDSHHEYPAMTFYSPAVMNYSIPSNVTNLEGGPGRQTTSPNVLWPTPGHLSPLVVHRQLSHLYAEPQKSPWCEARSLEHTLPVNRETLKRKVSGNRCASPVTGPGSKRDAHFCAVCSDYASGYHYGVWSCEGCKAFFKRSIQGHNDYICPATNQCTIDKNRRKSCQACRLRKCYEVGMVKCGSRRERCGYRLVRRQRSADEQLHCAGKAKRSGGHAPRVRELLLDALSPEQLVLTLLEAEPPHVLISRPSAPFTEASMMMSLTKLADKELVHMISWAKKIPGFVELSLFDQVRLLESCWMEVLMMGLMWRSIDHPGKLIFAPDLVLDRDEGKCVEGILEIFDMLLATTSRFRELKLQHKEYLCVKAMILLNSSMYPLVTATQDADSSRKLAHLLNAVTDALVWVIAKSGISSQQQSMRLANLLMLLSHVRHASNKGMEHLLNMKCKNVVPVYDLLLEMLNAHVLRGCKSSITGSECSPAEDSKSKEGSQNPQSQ

| Compound | IC50 [1] | IC50 [2] | Ki [2] | IC50 [3] | IC50 [4] | IC50 (Acetylcholinesterase; hek293) | IC50 (Estrogen receptor beta) | IC50 [5] | Ki [5] | IC50 (Acetylcholinesterase; read-out: IC50) | IC50 ([4]; read-out: IC50) |
| --- | --- | --- | --- | --- | --- | --- | --- | --- | --- | --- | --- |
| CCC(C)n1ncn(-c2ccc(N3CCN(c4ccc(OCC5COC(Cn6cncn6)(c6ccc(Cl)cc6Cl)O5)cc4)CC3)cc2)c1=O (stereo not drawn) [ITRACONAZOLE] | Not Active | Not Active | Not Active | Not Active | Not Active | Not Active | Not Active | Not Active | Not Active |  |  |
| O=c1oc2ccccc2c(O)c1Cc1c(O)c2ccccc2oc1=O [DICUMAROL] | Not Active | Not Active | Not Active | Not Active | Not Active | Not Active | Not Active | Not Active | Not Active |  |  |
| Cc1onc(O)c1CC(N)C(=O)O (racemic) [(R,S)-AMPA] | Not Active | Not Active | Not Active | Not Active | Not Active | Not Active | Not Active | Not Active | Not Active |  |  |
| CC1=C2C(=CO[C@H](C)[C@H]2C)C(O)=C(C(=O)O)C1=O [CITRININ] | Not Active | Not Active | Not Active | Not Active | Not Active | Not Active | Not Active | Not Active | Not Active |  |  |
| O=C1CC[C@@H](N2C(=O)c3ccccc3C2=O)C(=O)N1 | Not Active | Not Active | Not Active | Not Active | Not Active | Not Active | Not Active | Not Active | Not Active |  |  |
| CC(C)C(Br)C(=O)NC(N)=O (stereo not drawn) [BROMISOVALUM] | Not Active | Not Active | Not Active | Not Active | Not Active | Not Active | Not Active | Not Active | Not Active |  |  |
| Cc1ccccc1N1C(=O)c2cc(S(N)(=O)=O)c(Cl)cc2NC1C (stereo not drawn) [METOLAZONE] | Not Active | Not Active | Not Active | Not Active | Not Active | Not Active | Not Active | Not Active | Not Active |  |  |
| C1CCC(C(CC2CCCCN2)C2CCCCC2)CC1 (stereo not drawn) [PERHEXILINE] | Not Active | Not Active | Not Active | Not Active | Not Active | Not Active | Not Active | Not Active | Not Active |  |  |
| CC(C)CN(C[C@@H](O)[C@H](Cc1ccccc1)NC(=O)O[C@H]1CCOC1)S(=O)(=O)c1ccc(N)cc1 | Not Active | Not Active | Not Active | Not Active | Not Active | Not Active | Not Active | Not Active | Not Active |  |  |
| Cc1ccc2cc3c(ccc4ccccc43)c3c2c1CC3 [3-METHYLCHOLANTHRENE] | Not Active | Not Active | Not Active | Not Active | Not Active |  | Not Active | Not Active | Not Active | 22.7 µM |  |
| Nc1nc2c(ncn2CCC(CO)CO)c(=O)[nH]1 [PENCICLOVIR] | Not Active | Not Active | Not Active | Not Active | Not Active | Not Active | Not Active | Not Active | Not Active |  |  |
| CN(C)C(=O)Oc1cc(OC(=O)N(C)C)cc(C(O)CNC(C)(C)C)c1 (stereo not drawn) [BAMBUTEROL] | Not Active | Not Active | Not Active | Not Active | Not Active | Not Active | Not Active | Not Active | Not Active |  |  |
| Cc1ccc(/N=C/N(C)/C=N/c2ccc(C)cc2C)c(C)c1 [AMITRAZ] | Not Active | Not Active | Not Active | Not Active | Not Active | Not Active | Not Active | Not Active | Not Active |  |  |
| C[C@H](CS)C(=O)N1CCC[C@H]1C(=O)O [CAPTOPRIL] | Not Active | Not Active | Not Active | Not Active | Not Active | Not Active | Not Active | Not Active | Not Active |  |  |
| CCCCN1CCCC[C@H]1C(=O)Nc1c(C)cccc1C [LEVOBUPIVACAINE] | Not Active | Not Active | Not Active | Not Active | Not Active | Not Active | Not Active | Not Active | Not Active |  |  |
| OC(Cn1cncn1)(Cn1cncn1)c1ccc(F)cc1F [FLUCONAZOLE] | Not Active | Not Active | Not Active | Not Active | Not Active | Not Active | Not Active | Not Active | Not Active |  |  |
| CCCC1O[C@@H]2C[C@H]3[C@@H]4CCC5=CC(=O)C=C[C@]5(C)[C@H]4[C@@H](O)C[C@]3(C)[C@]2(C(=O)CO)O1 (stereo partly drawn) [BUDESONIDE] | Not Active | Not Active | Not Active | Not Active |  | Not Active | Not Active | Not Active | Not Active |  | 1990 nM |
| Cc1cc(C2CCCCC2)n(O)c(=O)c1 [CICLOPIROX] | Not Active | Not Active | Not Active | Not Active | Not Active | Not Active | Not Active | Not Active | Not Active |  |  |
| Cc1c(C)c2c(c(C)c1O)CC[C@@](C)(CCC[C@H](C)CCC[C@H](C)CCCC(C)C)O2 [ALPHA-TOCOPHEROL] | Not Active | Not Active | Not Active | Not Active | Not Active | Not Active | Not Active | Not Active | Not Active |  |  |
| Cc1c2oc3c(C)ccc(C(=O)N[C@@H]4C(=O)N[C@H](C(C)C)C(=O)N5CCC[C@H]5C(=O)N(C)CC(=O)N(C)[C@@H](C(C)C)C(=O)O[C@@H]4C)c3nc-2c(C(=O)N[C@@H]2C(=O)N[C@H](C(C)C)C(=O)N3CCC[C@H]3C(=O)N(C)CC(=O)N(C)[C@@H](C(C)C)C(=O)O[C@@H]2C)c(N)c1=O [DACTINOMYCIN] (I: T[dV]P[Sar][NMeV] / II: T[dV]P[Sar][NMeV]; ester I:1-I:C, II:1-II:C; linker I:N-II:N via Actinocin(1to9)) | Not Active | Not Active | Not Active | Not Active | Not Active | Not Active | Not Active | Not Active | Not Active |  |  |
| CC1(C)S[C@@H]2[C@H](NC(=O)Cc3ccccc3)C(=O)N2[C@H]1C(=O)O [PENICILLIN G] | Not Active | Not Active | Not Active | Not Active | Not Active | Not Active | Not Active | Not Active | Not Active |  |  |
| CN(Cc1ccc(C(C)(C)C)cc1)Cc1cccc2ccccc12 [BUTENAFINE] | Not Active | Not Active | Not Active | Not Active | Not Active |  | Not Active | Not Active | Not Active | 6.91 µM |  |
| C[C@H]1O[C@@H](O[C@H]2[C@@H](O)C[C@H](O[C@H]3[C@@H](O)C[C@H](O[C@H]4CC[C@@]5(C)[C@H](CC[C@@H]6[C@@H]5C[C@@H](O)[C@]5(C)[C@@H](C7=CC(=O)OC7)CC[C@]65O)C4)O[C@@H]3C)O[C@@H]2C)C[C@H](O)[C@@H]1O [DIGOXIN] | Not Active | Not Active | Not Active | Not Active | Not Active | Not Active | Not Active | Not Active | Not Active |  |  |
| CCCCc1nc(Cl)c(CO)n1Cc1ccc(-c2ccccc2-c2nnn[nH]2)cc1 [LOSARTAN] | Not Active | Not Active | Not Active | Not Active | Not Active | Not Active | Not Active | Not Active | Not Active |  |  |
| Nc1c(Br)cc(Br)cc1CN[C@H]1CC[C@H](O)CC1 [AMBROXOL] | Not Active | Not Active | Not Active | Not Active | Not Active | Not Active | Not Active | Not Active | Not Active |  |  |
| NC(=O)N1c2ccccc2CCc2ccccc21 | Not Active | Not Active | Not Active | Not Active | Not Active | Not Active | Not Active | Not Active | Not Active |  |  |
| C=C(C)C1(O)OC(=O)C=C1OC (stereo not drawn) [PENICILLIC ACID] | Not Active | Not Active | Not Active | Not Active | Not Active | Not Active | Not Active | Not Active | Not Active |  |  |
